These are literature values, as cited in US12311004B2, “Ophthalmic formulations and methods of use” (VISION SOLUTIONS, LLC, priority 2023, dated 2025).

One data set relates to FHV-1. The following applies: low concentrations, in vitro.
For data set [1] the following is noted: oral, cat.

For `NCCCC[C@H](N)C(=O)O` [L-lysine], in the data set on FHV-1, the “effect on the replication kinetics of the virus” value is “no effect”. Moreover, the “daily intake at which arginine deficiency is likely to occur” value in data set [1] was “exceeding 80 g/kg”.
